{"source": "patent US20160067277A1", "about": "“USE OF XENON FOR LIMITING TUMOR CELL MIGRATION” (L'Air Liquide, Societe Anonyme pour I'Etude et …, priority 2013, published 2016)", "type_in_all_cases": "cell-based, human", "key": {"[1]": {"system": "MCF7 cells", "test": "MTT cell survival test", "details": "1 h, 3 h, 5 h exposure to 70% xenon, MTT after 24 hours", "experimental": "(§1) ER− and ER+ cancer cells (Estrogen Receptor) of a human adenocarcinoma (breast cancer), namely lines of MDA-MB-231 and MCF7 cells, were deposited on plates coated with collagen, where they adhered. These cell lines are available commercially.\n(§2) The plates with the adhering cells were then placed in a sealed chamber, saturated, for 1 h, 3 h and 5 h, with: • either a control atmosphere (control), namely a gas mixture formed from 25% O2, 5% CO2 and 70% N2 (vol %); • or a test atmosphere based on xenon according to the invention, namely a gas mixture formed from 25% O2, 5% CO2 and 70% xenon (vol %).\n(§3) Cell survival was determined after 24 hours, using an MTT (for methylthaizolyldiphenyl-tetrazolium bromide) test. This test is a conventional test for determining cellular viability. It is based on detection of living cells only, via the activity of their mitochondrial dehydrogenases, which makes it possible to evaluate cytotoxicity, proliferation and/or cellular activation."}, "[2]": {"system": "MDA-MB-231 cells", "test": "MTT cell survival test", "details": "1 h, 3 h, 5 h exposure to 70% xenon, MTT after 24 hours", "experimental": "as §1, §2, §3"}, "[3]": {"system": "MCF7 cells", "test": "Oris cell migration test, fluorescence-labeled cells (RFU)", "details": "for % cell migration relative to the control: MCF7 (ER+) cells, migration at 24 h, control atmosphere = 100%", "experimental": "as §1, §2\n(§4) For its part, cell migration at 24 h was determined after 24 hours, using fluorescence-labeled cells in the context of an Oris™ cell migration test. In this test, the labeled cells migrate into a target zone, where they are then quantified by a fluorescent plate reader for measuring the relative fluorescent units (RFU)).\n(§5) More precisely, as already noted, several tests (3 or 4 tests) were conducted with the different gas atmospheres for different exposure times, and the results were expressed in the form of relative fluorescent units (RFU).\n(§6) The migration of the cancer cells exposed to the atmosphere containing xenon was calculated as a percentage (%) relative to that of the cells exposed to the control atmosphere, i.e. exposed to an atmosphere without xenon (RFU fixed at 100%), and in the same conditions.\n(§7) A two-way t-test for statistical analysis of the difference between the cell lines and the probability values P below 0.05 were considered significant."}, "[4]": {"system": "MDA-MB-231 cells", "test": "Oris cell migration test, fluorescence-labeled cells (RFU)", "details": "for % cell migration relative to the control: MDA-MB-231 (ER-) cells, migration at 24 h, control atmosphere = 100%", "experimental": "as §1, §2, §4, §5, §6, §7"}, "[5]": {"details": "1 h exposure to 25% O2, 5% CO2, 70% xenon"}, "[6]": {"details": "3 h exposure to 25% O2, 5% CO2, 70% xenon"}, "[7]": {"details": "5 h exposure to 25% O2, 5% CO2, 70% xenon"}}}
{"molecule": "[Xe]", "note": "[xenon]", "values": [{"measurement": "effect on cell survival", "setting": "[1]", "result": "does not have a significant effect on cell survival"}, {"measurement": "effect on cell survival", "setting": "[2]", "result": "does not have a significant effect on cell survival"}, {"measurement": "effect on cell migration (in words)", "setting": "[3]; ER+ MCF7 cells, starting from 1 hour of exposure, FIG. 2", "result": "significantly reduces the migration"}, {"measurement": "% cell migration relative to the control", "setting": "[3]; [5]", "result": "58 ± 12", "unit": "%"}, {"measurement": "% cell migration relative to the control", "setting": "[3]; [6]", "result": "65 ± 12", "unit": "%"}, {"measurement": "% cell migration relative to the control", "setting": "[3]; [7]", "result": "65 ± 12", "unit": "%"}, {"measurement": "effect on cell migration (in words)", "setting": "[4]; ER- MDA-MB-231 cells, starting from 1 hour of exposure, FIG. 1", "result": "significantly reduces the migration"}, {"measurement": "% cell migration relative to the control", "setting": "[4]; [5]", "result": "59 ± 13", "unit": "%"}, {"measurement": "% cell migration relative to the control", "setting": "[4]; [6]", "result": "64 ± 10", "unit": "%"}, {"measurement": "% cell migration relative to the control", "setting": "[4]; [7]", "result": "71 ± 9", "unit": "%"}]}
